Experiments:
Format in all cases: cell-based
SW480 colon cancer cells = assay: Cell viability assay (CellTiter-Blue) in SW480 colon cancer cells; conditions: Homo sapiens, 96 h; for inhibition at 10 µM: four days, CellTiter-Blue, read-out: percent inhibition at 10 μM (given for EC50 of >10 μM); for EC50: four days incubation, CellTiter-Blue cell viability
Outline: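 About 2×10^3 SW480 colon cancer cells per well were exposed to compound (8-point 1:3 dilutions, 10 μM to 0.004 μM) for four days at 37 °C. Viability was read by CellTiter-Blue resazurin reduction (~3 h, Ex 560/Em 590). EC50 from nonlinear regression; above 10 μM, % inhibition at 10 μM is reported.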

[1] = tested on: LL29 cells (primary human fibroblasts derived from IPF patients) treated with TGF-β1, α-smooth muscle actin; assay: Inhibition of the fibrotic process: αSMA staining in TGF-β1 treated primary human fibroblasts from IPF patients (LL29 cells); conditions: Fibroblast, 96 h; for EC50: LL29 cells treated with TGF-β1 (20 ng/mL), 4 days; for inhibition at 10 µM: LL29 cells treated with TGF-β1, 4 days, read-out: percent inhibition in brackets (given for EC50 >10 μM)
IL-6 in THP-1 cells = assay: Inhibition of IL-6 in LPS-stimulated THP-1 human monocyte cells (HTRF); conditions: IL-6 HTRF; for EC50: 500 ng/mL LPS, 22 hours; for inhibition at 10 µM: LPS, read-out: percent inhibition in brackets (given for EC50 >10 μM)
Outline: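 THP-1 cells, serum-reduced (1% FBS) for 24 h, were exposed to compound (1:3, 10-point series from 10 μM; 0.1% DMSO) for 2 h, then 500 ng/mL LPS for 22 h at 37° C. Secreted IL-6 measured by HTRF (665/620 ratio), normalised to DMSO; EC50 by four-parameter fit, else % inhibition at 10 μM.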

SMILES	inhibition at 10 µM (SW480 colon cancer cells)	EC50 (SW480 colon cancer cells)	EC50 [1]	inhibition at 10 µM [1]	EC50 (IL-6 in THP-1 cells)	inhibition at 10 µM (IL-6 in THP-1 cells)
Cc1ccncc1-c1ccc2[nH]nc(-c3nc4c(-c5ccncc5)cncc4[nH]3)c2n1 [Compound 117, 5-(4-Methylpyridin-3-yl)-3-(7-(pyridin-4-yl)-3H-imidazo[4,5-c]pyridin-2-yl)-1H-pyrazolo[4,3-b]pyridine]	2.8%	> 10 µM	> 10 µM	0%	> 10 µM	43.5%
CCCC(=O)Nc1cncc(-c2ccc3[nH]nc(-c4nc5c(-c6ccncc6)cncc5[nH]4)c3n2)c1 [Compound 129, N-(5-(3-(7-(Pyridin-4-yl)-3H-imidazo[4,5-c]pyridin-2-yl)-1H-pyrazolo[4,3-b]pyridin-5-yl)pyridin-3-yl)butyramide]	2.8%	> 10 µM	> 10 µM	0%	> 1 µM	18.7%
c1cc(-c2ccc3[nH]nc(-c4nc5c(-c6ccncc6)cncc5[nH]4)c3n2)ccn1 [Compound 130, 5-(pyridin-4-yl)-3-(7-(pyridin-4-yl)-3H-imidazo[4,5-c]pyridin-2-yl)-1H-pyrazolo[4,3-b]pyridine]	0%	> 10 µM	> 10 µM	11%	> 10 µM	29.3%
O=C(Nc1cncc(-c2ccc3[nH]nc(-c4nc5c(-c6ccncc6)cncc5[nH]4)c3n2)c1)C1CCCCC1 [Compound 135, N-(5-(3-(7-(pyridin-4-yl)-3H-imidazo[4,5-c]pyridin-2-yl)-1H-pyrazolo[4,3-b]pyridin-5-yl)pyridin-3-yl)cyclohexanecarboxamide]	1.4%	> 10 µM	> 10 µM	0%	> 1 µM	26.6%
CCNCc1cncc(-c2ccc3[nH]nc(-c4nc5c(-c6ccccn6)cncc5[nH]4)c3n2)c1 [Compound 146, N-((5-(3-(7-(Pyridin-2-yl)-3H-imidazo[4,5-c]pyridin-2-yl)-1H-pyrazolo[4,3-b]pyridin-5-yl)pyridin-3-yl)methyl)ethanamine]	26.9%	> 10 µM	1.86 µM		> 10 µM	20.1%
O=C(Nc1cncc(-c2ccc3[nH]nc(-c4nc5c(-c6ccccn6)cncc5[nH]4)c3n2)c1)c1ccccc1 [Compound 151, N-(5-(3-(7-(Pyridin-2-yl)-3H-imidazo[4,5-c]pyridin-2-yl)-1H-pyrazolo[4,3-b]pyridin-5-yl)pyridin-3-yl)benzamide]	16.9%	> 10 µM	> 10 µM	38.8%	> 10 µM	20.3%
CCCCC(=O)Nc1cncc(-c2ccc3[nH]nc(-c4nc5c(-c6ccccn6)cncc5[nH]4)c3n2)c1 [Compound 159, N-(5-(3-(7-(Pyridin-2-yl)-3H-imidazo[4,5-c]pyridin-2-yl)-1H-pyrazolo[4,3-b]pyridin-5-yl)pyridin-3-yl)pentanamide]	9%	> 10 µM	> 10 µM	0.4%	> 10 µM	28.2%
CCC(=O)Nc1cncc(-c2ccc3[nH]nc(-c4nc5c(N6CCCCC6)cncc5[nH]4)c3n2)c1 [Compound 169, N-(5-(3-(7-(Piperidin-1-yl)-3H-imidazo[4,5-c]pyridin-2-yl)-1H-pyrazolo[4,3-b]pyridin-5-yl)pyridin-3-yl)propionamide]	2.2%	> 10 µM	> 10 µM	3%	> 10 µM	25.6%
CN(C)Cc1cncc(-c2ccc3[nH]nc(-c4nc5c(N6CCCCC6)cncc5[nH]4)c3n2)c1 [Compound 181, N,N-Dimethyl-1-(5-(3-(7-(piperidin-1-yl)-3H-imidazo[4,5-c]pyridin-2-yl)-1H-pyrazolo[4,3-b]pyridin-5-yl)pyridin-3-yl)methanamine]		7.75 µM	8.03 µM		6.01 µM	
Cc1cn(-c2cncc3[nH]c(-c4n[nH]c5ccc(-c6cncc(NC(=O)CC(C)C)c6)nc45)nc23)cn1 [Compound 198, 3-Methyl-N-(5-(3-(7-(4-methyl-1H-imidazol-1-yl)-3H-imidazo[4,5-c]pyridin-2-yl)-1H-pyrazolo[4,3-b]pyridin-5-yl)pyridin-3-yl)butanamide]	4.2%	> 10 µM	> 10 µM	0%	> 10 µM	14.5%
Cc1cn(-c2cncc3[nH]c(-c4n[nH]c5ccc(-c6cncc(NC(=O)C(C)(C)C)c6)nc45)nc23)cn1 [Compound 204, N-(5-(3-(7-(4-methyl-1H-imidazol-1-yl)-3H-imidazo[4,5-c]pyridin-2-yl)-1H-pyrazolo[4,3-b]pyridin-5-yl)pyridin-3-yl)pivalamide]	4.7%	> 10 µM	> 10 µM	0%	> 10 µM	24.5%
Cc1cn(-c2cncc3[nH]c(-c4n[nH]c5ccc(-c6cncc(CN7CCCC7)c6)nc45)nc23)cn1 [Compound 210, 3-(7-(4-Methyl-1H-imidazol-1-yl)-3H-imidazo[4,5-c]pyridin-2-yl)-5-(5-(pyrrolidin-1-ylmethyl)pyridin-3-yl)-1H-pyrazolo[4,3-b]pyridine]	4%	> 10 µM	> 10 µM	0%	> 10 µM	13%
Cc1cn(-c2cncc3[nH]c(-c4n[nH]c5ccc(-c6cncc(NC(=O)C7CCC7)c6)nc45)nc23)cn1 [Compound 217, N-(5-(3-(7-(4-Methyl-1H-imidazol-1-yl)-3H-imidazo[4,5-c]pyridin-2-yl)-1H-pyrazolo[4,3-b]pyridin-5-yl)pyridin-3-yl)cyclobutanecarboxamide]	0%	> 10 µM	> 10 µM	18.8%	> 10 µM	36.5%
CN1CCN(c2cncc3[nH]c(-c4n[nH]c5ccc(-c6cncc(N)c6)nc45)nc23)CC1 [Compound 227, 5-(3-(7-(4-Methylpiperazin-1-yl)-3H-imidazo[4,5-c]pyridin-2-yl)-1H-pyrazolo[4,3-b]pyridin-5-yl)pyridin-3-amine]	0%	> 10 µM	4.83 µM		> 10 µM	38%
CC(C)C(=O)Nc1cncc(-c2ccc3[nH]nc(-c4nc5c(N6CCN(C)CC6)cncc5[nH]4)c3n2)c1 [Compound 233, N-(5-(3-(7-(4-Methylpiperazin-1-yl)-3H-imidazo[4,5-c]pyridin-2-yl)-1H-pyrazolo[4,3-b]pyridin-5-yl)pyridin-3-yl)isobutyramide]	1%	> 10 µM	> 10 µM	3.4%	> 10 µM	36.7%
CN1CCN(c2cncc3[nH]c(-c4n[nH]c5ccc(-c6cncc(NC(=O)C7CCCC7)c6)nc45)nc23)CC1 [Compound 246, N-(5-(3-(7-(4-Methylpiperazin-1-yl)-3H-imidazo[4,5-c]pyridin-2-yl)-1H-pyrazolo[4,3-b]pyridin-5-yl)pyridin-3-yl)cyclopentanecarboxamide]	1%	> 10 µM	> 10 µM	48.7%	> 10 µM	0%
CN1CCN(c2cncc3[nH]c(-c4n[nH]c5ccc(-c6cncnc6)nc45)nc23)CC1 [Compound 251, 3-(7-(4-Methylpiperazin-1-yl)-3H-imidazo[4,5-c]pyridin-2-yl)-5-(pyrimidin-5-yl)-1H-pyrazolo[4,3-b]pyridine]	0%	> 10 µM	> 10 µM	44.6%	> 10 µM	31.8%
O=C(Nc1cncc(-c2ccc3[nH]nc(-c4nc5c(-c6ccsc6)cncc5[nH]4)c3n2)c1)c1ccccc1 [Compound 263, N-(5-(3-(7-(Thiophen-3-yl)-3H-imidazo[4,5-c]pyridin-2-yl)-1H-pyrazolo[4,3-b]pyridin-5-yl)pyridin-3-yl)benzamide]	0.3%	> 10 µM	> 10 µM	0%	> 10 µM	36.3%
CCNCc1cncc(-c2ccc3[nH]nc(-c4nc5c(-c6ccoc6)cncc5[nH]4)c3n2)c1 [Compound 286, N-((5-(3-(7-(Furan-3-yl)-3H-imidazo[4,5-c]pyridin-2-yl)-1H-pyrazolo[4,3-b]pyridin-5-yl)pyridin-3-yl)methyl)ethanamine]		2.13 µM	> 10 µM	0%	> 10 µM	14.5%
CCCCC(=O)Nc1cncc(-c2ccc3[nH]nc(-c4nc5c(-c6ccoc6)cncc5[nH]4)c3n2)c1 [Compound 299, N-(5-(3-(7-(Furan-3-yl)-3H-imidazo[4,5-c]pyridin-2-yl)-1H-pyrazolo[4,3-b]pyridin-5-yl)pyridin-3-yl)pentanamide]	6.7%	> 10 µM	> 10 µM	38.1%	> 10 µM	48.6%

From patent US10188634B2, “3-(3H-imidazo[4,5-C]pyridin-2-yl)-1 H-pyrazolo[4,3-B]pyridines and therapeutic uses thereof” (Samumed, LLC, priority 2015, dated 2019)
